Tests used:
[1] = target: Phosphodiesterase 4 (Rattus norvegicus) (UniProt P14270+P14646+P14644+P54748); assay: In vitro inhibitory activity against phosphodiesterase 4 from rat liver at concentration of 3 uM
Phosphodiesterase 4 = Phosphodiesterase 4 (Rattus norvegicus, UniProt P14270+P14646+P14644+P54748); assay: Inhibition of phosphodiesterase 4 from rat liver at 0.3 uM (not determined)

Row | Inhibition [1] [%] | IC50 (Phosphodiesterase 4) [µM] | SMILES
1 | 46.4 | – | Cn1c(=O)n(Cc2ccccc2)c(=O)c2cc(-c3ccccc3F)cnc21
2 | 47.8 | – | Cn1c(=O)n(Cc2ccccc2)c(=O)c2cc(-c3ccc(Cl)cc3)cnc21
3 | 68.2 | – | Cn1c(=O)n(Cc2ccccc2)c(=O)c2cc(Cc3ccccc3)cnc21
4 | 44 | – | Cn1c(=O)n(Cc2ccccc2)c(=O)c2cc(-c3ccc(F)cc3)cnc21
5 | 46.7 | – | CCCOCc1cnc2c(c1)c(=O)n(Cc1ccccc1)c(=O)n2C
6 | 69.7 | – | Cn1c(=O)n(Cc2ccccc2)c(=O)c2c(-c3ccccc3F)ccnc21
7 | 35.1 | – | CCOc1ccc(-c2ccnc3c2c(=O)n(Cc2ccccc2)c(=O)n3C)cc1
8 | 43 | – | CCOC(=O)c1cnc2c(c1)c(=O)n(Cc1ccccc1)c(=O)n2C
9 | 23.5 | – | Cn1c(=O)n(Cc2ccccc2)c(=O)c2cc(-c3cccc([N+](=O)[O-])c3)cnc21
10 | 37.6 | – | Cn1c(=O)n(Cc2ccccc2)c(=O)c2cc(-c3cccc(C(F)(F)F)c3)cnc21
11 | 49.8 | – | Cn1c(=O)n(Cc2ccccc2)c(=O)c2cc(COCc3ccccc3)cnc21
12 | 57.1 | – | Cn1c(=O)n(Cc2ccccc2)c(=O)c2c(Cc3ccccc3)ccnc21
13 | 53.7 | – | Cn1c(=O)n(Cc2ccccc2)c(=O)c2cc(-c3ccccc3C(F)(F)F)cnc21
14 | 45.1 | – | Cn1c(=O)n(Cc2ccccc2)c(=O)c2cc(COc3ccccc3)cnc21
15 | 31.3 | > 10 | Cn1c(=O)n(Cc2ccccc2)c(=O)c2cc(-c3ccccc3)cnc21
